How the values were obtained:
NLuc-FKBP12F36V = target: T1, NLuc-FKBP12F36V (Homo sapiens, UniProt P62942, F37V); experiment: FKBP12F36V cellular target engagement assay (competition with dTAG-13, NLuc/FLuc signal); type: cell-based; conditions: mean±S.D. of n=3 technical replicates, FIG. 4D-F
T1 construct: expressed in transfected cells
Excerpt: This method, named the biotin targeting chimera (BioTAC) system, uses bifunctional molecules composed of a compound-of-interest linked to selective FKBP12F36V recruiter orthoAP1867, to recruit a ligandable proximity labeling enzyme (mTurbo-FKBP12F36V) to compound-bound complexes enabling their biotinylation and subsequent affinity purification (FIG. TA-B). To benchmark the BioTAC system for accurate detection of the direct targets of ligands the well-characterized BET protein inhibitor (+)-JQ1, which potently binds BRD2, BRD3 and BRD4 (as well as the testes-specific BET protein BRDT), was selected as a test case. A series of bifunctional molecules consisting of (+)-JQ1 conjugated to […] were synthesized via a variable linker (FIG. 1B, FIG. 4A-C). (+)-JQ1-bifunctional molecule cell permeability was measured using an FKBP12F36V cellular target engagement assay adapted from Nabet et. al Nat Commun 11, 4687 (2020). Briefly, FKBP12F36V binding molecules compete with an FKBP12F36V targeting PROTAC (dTAG-13), for NLuc-FKBP12F36V occupancy, rescuing degradation and resulting in an increase in NLuc/FLuc (control) signal relative to DMSO-treated cells. All synthesized compounds were comparably cell permeable (FIG. 4D-E).

BRD4 = target: T2, BRD4 (Homo sapiens, UniProt O60885); experiment: BioTAC proximity labeling, streptavidin pulldown and western blot for BRD4; type: cell-based; conditions: HEK293 transiently transfected with miniTurbo-FKBP12F36V, 100 μM biotin, 30 min time point
T2 construct: host or cells: HEK293 transiently transfected with the BioTAC plasmid
Protocol: Next bifunctional molecule guided-proximity labeling experiments were performed using validated reagents. HEK293 cells transiently transfected with mTurbo-FKBP12F36V were treated with 100 μM biotin, 1 μM bifunctional (+)-JQ1 recruiters, and variable concentrations of free (+)-JQ1 to off-compete the bifunctional molecule and rescue biotinylation. Biotinylated proteins were isolated from cell lysates via streptavidin bead pulldown and analyzed by western blot for BRD4, a primary target of (+)-JQ1.
0.6 million HEK293 cells were plated into wells containing 1 mL of complete media (DMEM, 10% FBS, 1% pen/strep) and incubated overnight. Cells were transiently transfected with 100 μL of OptiMEM media containing 1 μg of BioTAC plasmid and 3 μL of TransIT-2020 transfection reagent (Mirus, MIR5400) for 24 hr. Following a media change, cells were pre-treated with parental molecules or DMSO for 10 min, then treated with bifunctional compound for 10 min, and finally labeled in 100 μM biotin for the indicated time. Cells were washed twice with DPBS then harvested into 1.5 mL tubes. […] Protein concentration was determined by BCA assay (Thermo, 23225), then 100 ug protein was rotated overnight at 4° C. with 8 μL of streptavidin magnetic beads (Thermo, 88817) that had been prewashed twice in RIPA lysis buffer. […]

T1 sequence (P62942 2-108 F37V limits assumed): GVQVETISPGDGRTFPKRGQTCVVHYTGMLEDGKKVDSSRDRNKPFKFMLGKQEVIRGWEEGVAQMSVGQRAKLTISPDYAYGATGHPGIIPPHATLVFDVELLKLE

CC[C@H](C(=O)N1CCCC[C@H]1C(=O)O[C@H](CCc1ccc(OC)c(OC)c1)c1ccccc1OCC(=O)NCCOCCOCCOCCNC(=O)C[C@@H]1N=C(c2ccc(Cl)cc2)c2c(sc(C)c2C)-n2c(C)nnc21)c1cc(OC)c(OC)c(OC)c1 [Cpd1, (R)-1-(2-((17-((S)-4-(4-Chlorophenyl)-2,3,9-trimethyl-6H-thieno[3,2-f][1,2,4]triazolo[4,3-a][1,4]diazepin-6-yl)-2,16-dioxo-6,9,12-trioxa-3,15-diazaheptadecyl)oxy)phenyl)-3-(3,4-dimethoxyphenyl)propyl (S)-1-((S)-2-(3,4,5-trimethoxyphenyl)butanoyl)piperidine-2-carboxylate]
competitive displacement of dTAG-13 (FKBP12F36V cellular target engagement) (NLuc-FKBP12F36V): competitive displacement of dTAG-13 | BRD4 labeling and rescue (immunoblot of streptavidin pulldown) (BRD4): high BRD4-labeling and rescue
